Data taken from US20100240711A1, “SOLID PREPARATION COMPRISING NPYY5 RECEPTOR ANTAGONIST” (SHIONOGI & CO., LTD., priority 2007, published 2010).
Values after ≈ are worked out from the molar mass of the structure shown.

Assay: Solubility of S-2367 in water (Japanese Pharmacopoeia, Dissolution Test, Second Solution)
Format: physicochemical
Conditions: 37 °C, pH 6.8, aqueous buffer
Source text: A particularly preferable compound is trans-N-(5-trifluoromethylpyridin-2-yl)-4-(tertiarybutylsulfonylamino)cyclohexanecarboxamide (S-2367). The compound is a crystal under a room temperature.
The NPYY5 receptor antagonist of the present invention is not particularly limited as far as it is a drug which can be orally administered, but is preferably a drug having low solubility in water, so-called poorly water-soluble drug.

Q: For `CC(C)(C)S(=O)(=O)N[C@H]1CC[C@H](C(=O)Nc2ccc(C(F)(F)F)cn2)CC1` [Example S-2367, trans-N-(5-trifluoromethylpyridin-2-yl)-4-(tertiarybutylsulfonylamino)cyclohexanecarboxamide], which solubility is on record?
A: ~3.5 µg/mL (≈ 8.59 µM)
